Reference: patent US20180305332A1, “Bispiperidinyl Derivatives as Liver X Receptor Beta Agonists, Compositions, and Their Use” (Merck Sharp & Dohme Corp., priority 2015, published 2018)

What was measured:
[1] = target: T1, GST tagged LXRbeta LBD (ligand binding domain) (Homo sapiens, UniProt P55055); experiment: LanthaScreen TR-FRET Liver X Receptor Coactivator Assay, LXR beta-LBD; type: biochemical; details: relative to reference T0901317; for EC50: Inflection Point (potency), co-activator recruitment, read-out: LXR beta IP; for Emax: activity at max dose (efficacy), read-out: LXR beta act @ max dose (%)
T1 construct: purchased Invitrogen pv4658.pps
T1 sequence (P55055 222-460 limits assumed): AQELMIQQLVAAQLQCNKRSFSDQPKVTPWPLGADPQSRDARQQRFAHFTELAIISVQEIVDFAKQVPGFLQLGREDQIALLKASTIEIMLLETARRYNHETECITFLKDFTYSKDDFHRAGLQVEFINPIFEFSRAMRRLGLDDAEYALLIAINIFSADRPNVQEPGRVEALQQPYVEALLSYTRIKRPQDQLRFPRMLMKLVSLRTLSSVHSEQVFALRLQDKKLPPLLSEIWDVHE
Protocol: (§1) Potency (Inflection Point, IP) and efficacy (Emax) are evaluated via compound-induced co-activator recruitment to glutathione-S-transferase (GST) tagged LXRbeta and LXRalpha LBD (ligand binding domain) proteins in relation to reference dual agonist compound T0901317 (N-(2,2,2-Trifluoroethyl)-N-[4-[2,2,2-trifluoro-1-hydroxy-1-(trifluoromethyl)ethyl] phenyl]benzenesulfonamide) using the LanthaScreen™ TR-FRET Liver X Receptor Coactivator Assays according to manufacturer's instructions (Invitrogen catalog number pv4658.pps and pv4655). While running the LanthaScreen™ TR-FRET Liver X Receptor Coactivator Assay, LXR alpha-LBD or LXR beta-LBD was added to ligand test compounds followed by addition of a mixture of a fluorescein-labelled coactivator peptide and terbium-conjugated anti-GST antibody. After an incubation period at room temperature, TR-FRET (time-resolved fluorescence resonance energy transfer) was measured using a filter-based instrument capable of TR-FRET, e.g. PerkinElmer Envision.

[2] = target: T2, GST tagged LXRalpha LBD (ligand binding domain) (Homo sapiens, UniProt Q13133); experiment: LanthaScreen TR-FRET Liver X Receptor Coactivator Assay, LXR alpha-LBD; type: biochemical; details: relative to reference T0901317; for EC50: read-out: LXR alpha IP; for Emax: activity at max dose (efficacy), read-out: LXR alpha act @ max dose (%)
T2 construct: purchased Invitrogen pv4655
T2 sequence (Q13133 209-447 limits assumed): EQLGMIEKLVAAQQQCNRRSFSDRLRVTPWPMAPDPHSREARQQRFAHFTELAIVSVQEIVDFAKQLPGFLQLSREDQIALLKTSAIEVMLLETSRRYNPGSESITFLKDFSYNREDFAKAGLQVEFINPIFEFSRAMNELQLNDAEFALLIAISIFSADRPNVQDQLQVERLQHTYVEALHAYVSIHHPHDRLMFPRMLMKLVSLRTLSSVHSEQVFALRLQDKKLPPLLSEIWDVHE
Protocol: as §1

[3] = Inflection Point (potency), co-activator recruitment

SMILES	EC50 [1]	Emax [1]	EC50 [2, 3]	Emax [2]	LXR alpha IP (nM) [2, 3]
CN(C)C(=O)c1ccc(N2CCC(C3CCN(C(=O)C4(c5cc(F)cc(F)c5)CCCC4)CC3)CC2)cc1Cl [Example A-79, 2-chloro-4-(1′-{[1-(3,5-difluorophenyl)cyclopentyl]carbonyl}-4,4′-bipiperidin-1-yl)-N,N-dimethylbenzamide]	216 nM	125%	2540 nM	35%	–
CN(C)C(=O)c1ccc(N2CCC(C3CCN(C(=O)C(C)(C)c4ccc(O)cc4)CC3)CC2)cc1Cl [Example A-58, 2-chloro-4-{1′-[2-(4-hydroxyphenyl)-2-methylpropanoyl]-4,4′-bipiperidin-1-yl}-N,N-dimethylbenzamide]	100 nM	112%	3690 nM	59%	–
CC(C)[C@@](O)(C(=O)N1CCC(C2CCN(c3ccc(C(=O)N(C)C)c(Cl)c3)CC2)CC1)C(F)(F)F (single isomer, unassigned) [Example A-2]	35 nM	100%	1030 nM	41%	–
CCC1CCN(C(=O)c2ccc(N3CCC(C4CCN(C(=O)[C@](O)(c5ccccc5)C(F)(F)F)CC4)CC3)cc2Cl)C1 (stereo partly drawn) [Example E-29, (2R)-3-(1′-{3-chloro-4-[(3-ethylpyrrolidin-1-yl)carbonyl]phenyl}-4,4′-bipiperidin-1-yl)-1,1,1-trifluoro-3-oxo-2-phenylpropan-2-ol]	383 nM	63%	–	13%	NO IP
C=C(C)C(O)(C(=O)N1CCC(C2CCN(c3ccc(C(=O)N(C)C)c(Cl)c3)CC2)CC1)C(F)(F)F (stereo not shown) [Example A-31, 2-chloro-4-{1′-[2-hydroxy-3-methyl-2-(trifluoromethyl)but-3-enoyl]-4,4′-bipiperidin-1-yl}-N,N-dimethylbenzamide]	61 nM	86%	362 nM	27%	–
CN(C)C(=O)c1ccc(N2CCC(C3CCN(C(=O)C4(c5ccccc5)CC4)CC3)CC2)cc1Cl [Example A-39, 2-chloro-N,N-dimethyl-4-{1′-[(1-phenylcyclopropyl)carbonyl]-4,4′-bipiperidin-1-yl}benzamide]	140 nM	101%	5510 nM	32%	–
CN(C)C(=O)c1ccc(N2CCC(C3CCN(C(=O)C4(c5ccccc5F)CC4)CC3)CC2)cc1Cl [Example A-71, 2-chloro-4-(1′-{[1-(2-fluorophenyl)cyclopropyl]carbonyl}-4,4′-bipiperidin-1-yl)-N,N-dimethylbenzamide]	64 nM	127%	1640 nM	62%	–
CC(C)C(O)(C(=O)N1CCC(C2CCN(c3ccc(C(N)=O)c(Cl)c3)CC2)CC1)C(F)(F)F (stereo not shown) [Example E-4, 2-chloro-4-{1′-[2-hydroxy-3-methyl-2-(trifluoromethyl)butanoyl]-4,4′-bipiperidin-1-yl}benzamide]	51 nM	94%	180 nM	67%	–
CN(C)C(=O)c1ccc(N2CCC(C3CCN(C(=O)C4(c5ccc(F)cc5)CCC4)CC3)CC2)cc1Cl [Example A-18, 2-chloro-4-(1′-{[1-(4-fluorophenyl)cyclobutyl]carbonyl}-4,4′-bipiperidin-1-yl)-N,N-dimethylbenzamide]	207 nM	81%	4200 nM	15%	–
CC(C)C(O)(C(=O)N1CCC(C2CCN(c3ccc(C(=O)N4CCCC4)c(Cl)c3)CC2)CC1)C(F)(F)F (stereo not shown) [Example E-7, 2-({1′-[3-chloro-4-(pyrrolidin-1-ylcarbonyl)phenyl]-4,4′-bipiperidin-1-yl}carbonyl)-1,1,1-trifluoro-3-methylbutan-2-ol]	108 nM	74%	1920 nM	32%	–
